Laboratory results published in patent publication US9902702B2, “Spirocycloheptanes as inhibitors of rock” (BRISTOL-MYERS SQUIBB COMPANY, priority 2014, dated 2018).
Structures can show the parent of a compound that is named as a salt.

Target: ROCK2 (Homo sapiens, UniProt O75116)
Assay: ROCK assay: phosphorylation of FITC peptide substrate, LABCHIP 3000 mobility shift
Format: biochemical
Settings: 5 μM ATP, 1.5 μM peptide substrate; read-out: ROCK2 Activity (ROCK IC50 range)
Outline: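 IC50 values come from curve-fitting percent kinase inhibition across a compound dilution series. The reaction is started with Rho kinase variant in HEPES pH 7.5 buffer with MgCl2, Brij-35 and DTT, with 5 μM ATP, 1.5 μM FITC-labelled peptide and under 2% DMSO. After EDTA quench, product and substrate are separated by microfluidic mobility shift.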

Chain of ROCK2 (O75116 whole entry, species assumed): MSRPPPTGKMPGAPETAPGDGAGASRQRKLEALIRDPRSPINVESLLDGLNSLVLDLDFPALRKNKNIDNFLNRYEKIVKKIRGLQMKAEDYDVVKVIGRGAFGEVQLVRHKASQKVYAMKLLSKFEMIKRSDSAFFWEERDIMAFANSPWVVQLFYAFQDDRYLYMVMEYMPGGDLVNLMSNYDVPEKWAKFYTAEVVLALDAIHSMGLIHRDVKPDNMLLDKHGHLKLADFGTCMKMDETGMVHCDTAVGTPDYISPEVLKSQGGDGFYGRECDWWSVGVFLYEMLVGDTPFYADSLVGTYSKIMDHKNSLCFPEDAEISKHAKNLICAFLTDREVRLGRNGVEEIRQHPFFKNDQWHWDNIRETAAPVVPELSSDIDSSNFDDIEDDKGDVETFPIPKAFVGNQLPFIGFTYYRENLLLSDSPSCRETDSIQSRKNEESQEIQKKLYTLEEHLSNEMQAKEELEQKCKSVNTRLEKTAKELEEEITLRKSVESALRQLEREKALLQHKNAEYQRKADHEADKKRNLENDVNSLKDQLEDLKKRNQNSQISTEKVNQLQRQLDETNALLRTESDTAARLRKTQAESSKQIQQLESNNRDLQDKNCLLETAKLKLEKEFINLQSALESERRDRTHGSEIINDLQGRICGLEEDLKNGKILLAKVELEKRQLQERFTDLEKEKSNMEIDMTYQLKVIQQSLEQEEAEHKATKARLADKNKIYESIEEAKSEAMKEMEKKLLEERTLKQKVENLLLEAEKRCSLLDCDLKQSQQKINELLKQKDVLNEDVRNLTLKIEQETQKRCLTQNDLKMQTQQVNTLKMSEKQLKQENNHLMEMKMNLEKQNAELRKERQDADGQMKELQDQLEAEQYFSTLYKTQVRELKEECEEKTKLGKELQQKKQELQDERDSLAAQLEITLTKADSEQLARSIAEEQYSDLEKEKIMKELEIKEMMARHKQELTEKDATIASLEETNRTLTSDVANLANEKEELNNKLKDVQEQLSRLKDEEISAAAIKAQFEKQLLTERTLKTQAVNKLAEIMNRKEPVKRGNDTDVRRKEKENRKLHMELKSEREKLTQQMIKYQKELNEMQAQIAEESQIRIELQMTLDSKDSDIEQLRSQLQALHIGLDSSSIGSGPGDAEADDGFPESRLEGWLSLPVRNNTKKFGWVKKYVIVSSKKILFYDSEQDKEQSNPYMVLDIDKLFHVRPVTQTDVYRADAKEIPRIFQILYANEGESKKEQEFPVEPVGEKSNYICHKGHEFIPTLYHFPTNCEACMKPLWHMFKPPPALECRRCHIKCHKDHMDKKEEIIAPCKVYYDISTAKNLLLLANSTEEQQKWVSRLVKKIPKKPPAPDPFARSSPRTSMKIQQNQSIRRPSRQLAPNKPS

| Structure (SMILES) | IC50 [nM] |
| --- | --- |
| CCn1nccc1C(=O)NC1CC2(C1)CC(c1n[nH]c(=O)c3ccccc13)C2 [Example 285, 1-ethyl-N-((aR)-6-(4-oxo-3,4-dihydrophthalazin-1-yl)spiro[3.3]heptan-2-yl)-1H-pyrazole-5-carboxamide] | 15.1 to 100 |
| O=C(NC1CC2(C1)CC(c1n[nH]c(=O)c3ccccc13)C2)c1ccnn1C(F)F [Example 286, 1-(difluoromethyl)-N-((aR)-6-(4-oxo-3,4-dihydrophthalazin-1-yl)spiro[3.3]heptan-2-yl)-1H-pyrazole-5-carboxamide] | 15.1 to 100 |
| CC(C)(O)COc1ccc2c(C(=O)NC3CC4(C3)CC(c3n[nH]c(=O)c5ccccc35)C4)onc2c1 [Example 287, 6-(2-hydroxy-2-methylpropoxy)-N-((aR)-6-(4-oxo-3,4-dihydrophthalazin-1-yl)spiro[3.3]heptan-2-yl)benzo[c]isoxazole-3-carboxamide, TFA] | 0.2 to 2 |
| O=C(NC1CC2(C1)CC(c1n[nH]c(=O)c3ccccc13)C2)c1nn(-c2cccc(Cl)c2)c2c1CCNC2=O [Example 288, 1-(3-chlorophenyl)-7-oxo-N-((aR)-6-(4-oxo-3,4-dihydrophthalazin-1-yl)spiro[3.3]heptan-2-yl)-4,5,6,7-tetrahydro-1H-pyrazolo[3,4-c] pyridine-3-carboxamide] | 15.1 to 100 |
| COc1ccc(-n2nc(C(=O)NC3CC4(C3)CC(c3n[nH]c(=O)c5ccccc35)C4)c3c2C(=O)NCC3)cc1 [Example 289, 1-(4-methoxyphenyl)-7-oxo-N-((aR)-6-(4-oxo-3,4-dihydrophthalazin-1-yl)spiro[3.3]heptan-2-yl)-4,5,6,7-tetrahydro-1H-pyrazolo[3,4-c]pyridine-3-carboxamide] | 15.1 to 100 |
| O=C(NC1CC2(C1)CC(c1n[nH]c(=O)c3ccccc13)C2)c1noc2ccc(Cl)cc12 [Example 290, 5-chloro-N-((aR)-6-(4-oxo-3,4-dihydrophthalazin-1-yl)spiro[3.3]heptan-2-yl)benzo[d]isoxazole-3-carboxamide] | 2.01 to 5 |
| CC(=O)Nc1ccc2c(C(=O)NC3CC4(C3)CC(c3n[nH]c(=O)c5ccccc35)C4)noc2c1 [Example 291, 6-acetamido-N-((aR)-6-(4-oxo-3,4-dihydrophthalazin-1-yl)spiro[3.3]heptan-2-yl)benzo[d]isoxazole-3-carboxamide] | 5.1 to 15 |
| [H][C@]1(c2n[nH]c(=O)c3ccccc32)C[C@@]2(C[C@H](NC(=O)c3ncn4ccccc34)C2)C1 (stereo partly drawn) [Example 292, N-((aR)-6-(4-oxo-3,4-dihydrophthalazin-1-yl)spiro[3.3]heptan-2-yl)imidazo[1,5-a]pyridine-1-carboxamide] | 15.1 to 100 |
| [H][C@]1(c2n[nH]c(=O)c3ccccc32)C[C@@]2(C[C@H](NC(=O)c3cc4cc(OC)ccc4n3C)C2)C1 (stereo partly drawn) [Example 293, 5-methoxy-1-methyl-N-((aR)-6-(4-oxo-3,4-dihydrophthalazin-1-yl)spiro[3.3]heptan-2-yl)-1H-indole-2-carboxamide] | 15.1 to 100 |
| [H][C@]1(c2n[nH]c(=O)c3ccccc32)C[C@@]2(C[C@H](NC(=O)c3cc4ccccc4n3C)C2)C1 (stereo partly drawn) [Example 294, 1-methyl-N-((aR)-6-(4-oxo-3,4-dihydrophthalazin-1-yl)spiro[3.3]heptan-2-yl)-1H-indole-2-carboxamide] | 5.1 to 15 |
| [H][C@]1(c2n[nH]c(=O)c3ccccc32)C[C@@]2(C[C@H](NC(=O)c3cc4cccc(OC)c4[nH]3)C2)C1 (stereo partly drawn) [Example 295, 7-methoxy-N-((aR)-6-(4-oxo-3,4-dihydrophthalazin-1-yl)spiro[3.3]heptan-2-yl)-1H-indole-2-carboxamide] | 5.1 to 15 |
| [H][C@]1(c2n[nH]c(=O)c3ccccc32)C[C@@]2(C[C@H](NC(=O)c3nc4c(s3)CN(C)CC4)C2)C1 (stereo partly drawn) [Example 296, 5-methyl-N-((aR)-6-(4-oxo-3,4-dihydrophthalazin-1-yl)spiro[3.3]heptan-2-yl)-4,5,6,7-tetrahydrothiazolo [5,4-c]pyridine-2-carboxamide] | 100 to 2100 |
| [H][C@]1(c2n[nH]c(=O)c3ccccc32)C[C@@]2(C[C@H](NC(=O)c3cc4c(Cl)cccc4n3C)C2)C1 (stereo partly drawn) [Example 297, 4-chloro-1-methyl-N-((aR)-6-(4-oxo-3,4-dihydrophthalazin-1-yl)spiro[3.3]heptan-2-yl)-1H-indole-2-carboxamide] | 2.01 to 5 |
| [H][C@]1(c2n[nH]c(=O)c3ccccc32)C[C@@]2(C[C@H](NC(=O)c3cc4ccccc4[nH]3)C2)C1 (stereo partly drawn) [Example 298, N-((aR)-6-(4-oxo-3,4-dihydrophthalazin-1-yl)spiro[3.3]heptan-2-yl)-1H-indole-2-carboxamide] | 5.1 to 15 |
| [H][C@]1(c2n[nH]c(=O)c3ccccc32)C[C@]2(C[C@@H](NC(=O)c3c(C)nc4ccccn34)C2)C1 (stereo partly drawn) [Example 299, 2-methyl-N-((aR)-6-(4-oxo-3,4-dihydrophthalazin-1-yl)spiro[3.3]heptan-2-yl)imidazo[1,2-a]pyridine-3-carboxamide] | 15.1 to 100 |
| [H][C@]1(c2n[nH]c(=O)c3ccccc32)C[C@]2(C[C@@H](NC(=O)c3c[nH]c4ccccc34)C2)C1 (stereo partly drawn) [Example 300, N-((aR)-6-(4-oxo-3,4-dihydrophthalazin-1-yl)spiro[3.3]heptan-2-yl)-1H-indole-3-carboxamide] | 5.1 to 15 |
| [H][C@]1(c2n[nH]c(=O)c3ccccc32)C[C@]2(C[C@@H](NC(=O)c3cc4cccc(Cl)c4n3C)C2)C1 (stereo partly drawn) [Example 301, 7-chloro-1-methyl-N-((aR)-6-(4-oxo-3,4-dihydrophthalazin-1-yl)spiro[3.3]heptan-2-yl)-1H-indole-2-carboxamide] | 2.01 to 5 |
| [H][C@]1(c2n[nH]c(=O)c3ccccc32)C[C@]2(C[C@@H](NC(=O)c3cc4c(Cl)ccc(C)c4[nH]3)C2)C1 (stereo partly drawn) [Example 302, 4-chloro-7-methyl-N-((aR)-6-(4-oxo-3,4-dihydrophthalazin-1-yl)spiro[3.3]heptan-2-yl)-1H-indole-2-carboxamide] | 0.2 to 2 |
| O=C(NC1CC2(C1)CC(c1n[nH]c(=O)c3ccccc13)C2)c1cnc2[nH]cnc2c1 [Example 310, N-((aR)-6-(4-oxo-3,4-dihydrophthalazin-1-yl)spiro[3.3]heptan-2-yl)-3H-imidazo[4,5-b]pyridine-6-carboxamide] | 15.1 to 100 |

The next lines start with the values.

| IC50 [nM] | Structure (SMILES) |
| --- | --- |
| 5.1 to 15 | [H][C@]1(c2n[nH]c(=O)c3ccccc32)C[C@]2(C[C@@H](NC(=O)c3cc4nccnc4s3)C2)C1 (stereo partly drawn) [Example 303, N-((aR)-6-(4-oxo-3,4-dihydrophthalazin-1-yl)spiro[3.3]heptan-2-yl)thieno[2,3-b]pyrazine-6-carboxamide] |
| 15.1 to 100 | [H][C@]1(c2n[nH]c(=O)c3ccccc32)C[C@]2(C[C@@H](NC(=O)c3cnn4cccc(Br)c34)C2)C1 (stereo partly drawn) [Example 304, 4-bromo-N-((aR)-6-(4-oxo-3,4-dihydrophthalazin-1-yl)spiro[3.3]heptan-2-yl)pyrazolo[1,5-a]pyridine-3-carboxamide] |
| 15.1 to 100 | [H][C@]1(c2n[nH]c(=O)c3ccccc32)C[C@]2(C[C@@H](NC(=O)c3nc4ccc(Cl)cc4[nH]3)C2)C1 (stereo partly drawn) [Example 305, 6-chloro-N-((aR)-6-(4-oxo-3,4-dihydrophthalazin-1-yl)spiro[3.3]heptan-2-yl)-1H-benzo[d] imidazole-2-carboxamide] |
| 5.1 to 15 | [H][C@]1(c2n[nH]c(=O)c3ccccc32)C[C@]2(C[C@@H](NC(=O)c3cc4cc(Cl)ccc4n3C)C2)C1 (stereo partly drawn) [Example 306, 5-chloro-1-methyl-N-((aR)-6-(4-oxo-3,4-dihydrophthalazin-1-yl)spiro[3.3]heptan-2-yl)-1H-indole-2-carboxamide] |
| 5.1 to 15 | [H][C@]1(c2n[nH]c(=O)c3ccccc32)C[C@]2(C[C@@H](NC(=O)c3ccc4c(c3)ncn4C(C)C)C2)C1 (stereo partly drawn) [Example 307, 1-isopropyl-N-((aR)-6-(4-oxo-3,4-dihydrophthalazin-1-yl)spiro[3.3]heptan-2-yl)-1H-benzo[d] imidazole-5-carboxamide] |
| 5.1 to 15 | [H][C@]1(c2n[nH]c(=O)c3ccccc32)C[C@]2(C[C@@H](NC(=O)c3ccc4[nH]cnc4c3)C2)C1 (stereo partly drawn) [Example 308, N-((aR)-6-(4-oxo-3,4-dihydrophthalazin-1-yl)spiro[3.3]heptan-2-yl)-1H-benzo[d] imidazole-5-carboxamide] |
| 15.1 to 100 | [H][C@]1(c2n[nH]c(=O)c3ccccc32)C[C@]2(C[C@@H](NC(=O)c3ccc4[nH]c(C)nc4c3)C2)C1 (stereo partly drawn) [Example 309, 2-methyl-N-((aR)-6-(4-oxo-3,4-dihydrophthalazin-1-yl)spiro[3.3]heptan-2-yl)-1H-benzo[d] imidazole-5-carboxamide] |
| 5.1 to 15 | [H][C@]1(c2n[nH]c(=O)c3ccccc32)C[C@]2(C[C@@H](NC(=O)c3ccc(NC=O)c(O)c3)C2)C1 (stereo partly drawn) [Example 311, 4-formamido-3-hydroxy-N-((aR)-6-(4-oxo-3,4-dihydrophthalazin-1-yl)spiro[3.3]heptan-2-yl)benzamide] |
| 5.1 to 15 | [H][C@]1(c2n[nH]c(=O)c3ccccc32)C[C@]2(C[C@@H](NC(=O)c3cc4cccnc4[nH]3)C2)C1 (stereo partly drawn) [Example 312, N-((aR)-6-(4-oxo-3,4-dihydrophthalazin-1-yl)spiro[3.3]heptan-2-yl)-1H-pyrrolo[2,3-b]pyridine-2-carboxamide] |
| 5.1 to 15 | [H][C@]1(c2n[nH]c(=O)c3ccccc32)C[C@]2(C[C@@H](NC(=O)c3cc4ccc(Cl)cc4s3)C2)C1 (stereo partly drawn) [Example 313, 6-chloro-N-((aR)-6-(4-oxo-3,4-dihydrophthalazin-1-yl)spiro[3.3]heptan-2-yl)benzo[b] thiophene-2-carboxamide] |
| 5.1 to 15 | [H][C@]1(c2n[nH]c(=O)c3ccccc32)C[C@]2(C[C@@H](NC(=O)c3cc4ccc(OC)cc4n3C)C2)C1 (stereo partly drawn) [Example 314, 6-methoxy-1-methyl-N-((aR)-6-(4-oxo-3,4-dihydrophthalazin-1-yl)spiro[3.3]heptan-2-yl)-1H-indole-2-carboxamide] |
| 15.1 to 100 | [H][C@]1(c2n[nH]c(=O)c3ccccc32)C[C@]2(C[C@@H](NC(=O)c3ccc4nc(C)oc4c3)C2)C1 (stereo partly drawn) [Example 315, 2-methyl-N-((aR)-6-(4-oxo-3,4-dihydrophthalazin-1-yl)spiro[3.3]heptan-2-yl)benzo[d] oxazole-6-carboxamide] |
